From ChEMBL document CHEMBL5143718, “Rational Design of a Theranostic Agent Triggered by Endogenous Nitric Oxide in a Cellular Model of Alzheimer's Disease” (J Med Chem, 2022) come the findings set out here.

For series [1], the system named is HT-22. In words: Antioxidant activity in mouse HT-22 cells cocultured with BV-2 cells assessed as reduction in glutamic acid level at 5 uM incubated for 24 hrs. The series is classed as functional.
Series [2] deals with HT-22. In words: Antioxidant activity in mouse HT-22 cells cocultured with BV-2 cells assessed as ROS scavenging activity at 5 uM incubated for 48 hrs by DCFH-DA staining based microplate reader analysis. The series is classed as functional.
Series [3] relates to HT-22. Briefly: Cytotoxicity against mouse HT-22 cells assessed as reduction in cell viability at higher concentration incubated for 24 hrs by CCK8 assay. The series is classed as toxicity, cell-based. The following applies: ht-22, 24 h. In general terms: Tetrazolium dyes change colour on reduction, which living cells bring about.
A short description of series [4]: Effective permeability of compound in PBS buffer at pH 7.4 incubated for 18 hrs by PAMPA assay. The series is classed as ADME. The following applies: read-out: Peff.
For series [5], the system named is HT-22. Briefly: Cytotoxicity against mouse HT-22 cells assessed as reduction in cell viability at 5 uM after 24 hrs by CCK8 assay. The series is classed as toxicity, cell-based. The following applies: ht-22, 24 h.
For series [6], the system named is HT-22. In words: Antioxidant activity in mouse HT-22 cells cocultured with BV-2 cells assessed as increase in GSH level at 5 uM incubated for 48 hrs by DCFH-DA staining based microplate reader analysis. The series is classed as functional.
Series [7] relates to HT-22. In words: Antioxidant activity in mouse HT-22 cells cocultured with BV-2 cells assessed as upregulation of HO-1 mRNA expression at 5 uM after 48 hrs by qRT-PCR analysis. The series is classed as functional, cell-based. A general note: Real-time PCR tracks product formation cycle by cycle.
Series [8] has as its system BV-2. Briefly: Cytotoxicity against mouse BV-2 cells assessed as reduction in cell viability at 1 to 10 uM incubated for 24 hrs by CCK8 assay. The series is classed as toxicity, cell-based. Conditions: bv-2, 24 h, dose 1-10 µM.
For series [9], the system named is HT-22. In words: Antioxidant activity in mouse HT-22 cells cocultured with BV-2 cells assessed as upregulation of NQO1 mRNA expression at 5 uM after 48 hrs by qRT-PCR analysis. The series is classed as functional, cell-based.
The test system of series [10] is HT-22. In words: Cytotoxicity against mouse HT-22 cells assessed as reduction in cell viability at < 5 uM incubated for 24 hrs by CCK8 assay. The series is classed as toxicity, cell-based. Conditions: ht-22, 24 h.
Series [11] relates to HT-22. In words: Cytotoxicity against mouse HT-22 cells assessed as increase in live/dead cells ratio at 5 uM after 48 hrs by Live/dead staining based fluorescence microscopic analysis. The series is classed as toxicity, cell-based. Conditions: ht-22, 48 h.
For series [12], the system named is HT-22. Briefly: Cytotoxicity against mouse HT-22 cells assessed as reduction in cell viability at 5 uM after 36 hrs by CCK8 assay. The series is classed as toxicity, cell-based. The following applies: ht-22, 36 h.
Series [13] in a line: Cytotoxicity against mouse HT-22 cells assessed as cell viability at 5 uM after 48 hrs by CCK8 assay. The series is classed as toxicity, cell-based. The following applies: read-out: Activity.
Series [14] can be described thus: Drug uptake in INFgamma-stimulated mouse BV-2 cells assessed as increase in fluorescence at 10 uM pretreated with INFgamma and carboxyl-PTIO for 3 hrs followed by compound addition and measured after 3 hrs. The series is classed as ADME, cell-based.
Series [15] can be described thus: Drug uptake in LPS-stimulated mouse BV-2 cells assessed as increase in fluorescence at 10 uM pretreated with LPS and carboxyl-PTIO for 3 hrs followed by compound addition and measured after 3 hrs. The series is classed as ADME, cell-based.
Series [16] can be described thus: Drug uptake in mouse BV-2 cells assessed as increase in fluorescence at 10 uM after 3 hrs. The series is classed as ADME, cell-based. The following applies: bv-2, 3 h.
Series [17] in a line: Drug uptake in INFgamma-stimulated mouse BV-2 cells assessed as increase in fluorescence at 10 uM pretreated with INFgamma and L-NAA for 16 hrs followed by compound addition and measured after 3 hrs. The series is classed as ADME, cell-based. The following applies: bv-2, 3 h.
Series [18] is described as follows: Drug uptake in L-arginine stimulated mouse BV-2 cells assessed as increase in fluorescence at 10 uM pretreated with L-arginine and L-NAA for 16 hrs followed by compound addition and measured after 3 hrs. The series is classed as ADME, cell-based. Conditions: bv-2, 3 h.
Series [19] in a line: Drug uptake in LPS-stimulated mouse BV-2 cells assessed as increase in fluorescence at 10 uM pretreated with LPS and L-NAA for 16 hrs followed by compound addition and measured after 3 hrs. The series is classed as ADME, cell-based. Conditions: bv-2, 3 h.
The nature of series [20]: Cytotoxicity against mouse HT-22 cells cocultured with BV-2 cells assessed as cell viability at 5 uM after 48 hrs by CCK8 assay (reference value: 5.19 +/- 1.60%). The following applies: read-out: Activity. The series is classed as toxicity, cell-based.
In series [21] the test system is HT-22. In words: Cytotoxicity against mouse HT-22 cells cocultured with BV-2 cells assessed as increase in live/dead cells ratio at 5 uM after 48 hrs by Live/dead staining based fluorescence microscopic analysis. Conditions: ht-22, 48 h. The series is classed as toxicity, cell-based.
Series [22] can be described thus: Drug uptake in mouse HT-22 cells cocultured with BV-2 cells assessed as increase in fluorescence at 10 uM after 12 hrs. Conditions: ht-22, 12 h. The series is classed as ADME, cell-based.
A short description of series [23]: Drug uptake in L-arginine stimulated mouse BV-2 cells assessed as increase in fluorescence at 10 uM pretreated with L-arginine and carboxyl-PTIO for 3 hrs followed by compound addition and measured after 3 hrs. The series is classed as ADME, cell-based.
The test system of series [24] is BV-2. Briefly: Cytotoxicity against mouse BV-2 cells assessed as reduction in cell viability at 10 uM incubated for 24 hrs by CCK8 assay. The following applies: bv-2, 24 h. The series is classed as toxicity, cell-based.

The source made the active and inactive calls. The rule behind the calls is not given here. A value given as a limit tells only on which side of the number the result lay.

On to `CC12CC3CC(C)(C1)CC(NCCOCCOCCOCCOc1ccc(N4c5ccccc5N(c5ccccc5)c5c4c4ccccc4c4ccccc54)cc1)(C3)C2`, for which the Activity in [1] was 0.32; in [2], 732; in series [3], “Non-Toxic”; in series [5], “Non-Toxic”; in series [6], 103.7; in series [8], “Non-Toxic”. Also, the Activity result in [10], in series [11] and in series [12] was “Non-Toxic” each time. In addition, in series [4], the Papp at 18 h amounted to 5.73 ×10⁻⁶ cm/s. The outcome in series [7] and in [9] was Active. For the same compound, the viability at 48 h, 5 µM in series [13] is 45.9%.

In the case of `CC12CC3CC(C)(C1)CC(NCCOCCOCCOCCO)(C3)C2`, the outcome in series [1] was Active. Moreover, the viability at 48 h, 5 µM in [13] was 20.1%.

With `O=C1C(=O)c2ccccc2-c2ccccc21` [9,10-PHENANTHRENEQUINONE], the Drug uptake result in [14], in series [15], in [16], in series [17], in series [18] and in [19] was “Active” throughout. For the same compound, the Drug uptake result in [22] and in series [23] was “Active” each time. Besides, in series [20], the viability at 48 h, 5 µM is 4.46%. The Activity entry in [21] is on record as “Non-Toxic”.

Turning to `O=C1C=CC(=O)C=C1` [BENZOQUINONE], the Drug uptake result in series [14], in series [15], in [16], in series [17], in [18] and in series [19] was “Active” throughout. Also, the Drug uptake entry in [22] and in series [23] was “Active” in each case. For the same compound, the viability at 48 h, 5 µM in series [20] was 4.33%. For the same compound, in [21], the Activity entry is reported as “Non-Toxic”.

`CC12CC3CC(C)(C1)CC(N)(C3)C2` [MEMANTINE]: the Activity in series [1] is listed as 0.47; in series [2], 586.7; in [3], “Non-Toxic”; in series [24] it was over 70%; in series [5], “Non-Toxic”; in series [6], 91.9. Besides, the Activity result in [10] and in series [12] was “Non-Toxic” each time. For the same compound, the viability at 48 h, 5 µM in [13] is 13.9%.
